Measurements taken from patent US12331044B2, “Inhibitors of histone deacetylase useful for the treatment or prevention of HIV infection” (Merck Sharp & Dohme LLC, priority 2018, dated 2025).
Read-outs that look alike come from different tables or passages of the source.

How the values were obtained:
HDAC6 = HDAC6 (Homo sapiens (Human), UniProt Q9UBN7); assay: biochemical
[1] = molecular target: human HDAC3/SMRT heterodimer (Homo sapiens (Human), UniProt O15379); assay: biochemical
human HDAC2 = human HDAC2 (Homo sapiens (Human), UniProt Q92769); assay: HDAC2 inhibition assay (modified FLUOR DE LYS, 384-well); type: biochemical; conditions: […] nM enzyme, 40 μM substrate BML-KI104, 3 h pre-incubation; read-out: HDAC2 IC50
Sequence of human HDAC2 (Q92769 whole entry): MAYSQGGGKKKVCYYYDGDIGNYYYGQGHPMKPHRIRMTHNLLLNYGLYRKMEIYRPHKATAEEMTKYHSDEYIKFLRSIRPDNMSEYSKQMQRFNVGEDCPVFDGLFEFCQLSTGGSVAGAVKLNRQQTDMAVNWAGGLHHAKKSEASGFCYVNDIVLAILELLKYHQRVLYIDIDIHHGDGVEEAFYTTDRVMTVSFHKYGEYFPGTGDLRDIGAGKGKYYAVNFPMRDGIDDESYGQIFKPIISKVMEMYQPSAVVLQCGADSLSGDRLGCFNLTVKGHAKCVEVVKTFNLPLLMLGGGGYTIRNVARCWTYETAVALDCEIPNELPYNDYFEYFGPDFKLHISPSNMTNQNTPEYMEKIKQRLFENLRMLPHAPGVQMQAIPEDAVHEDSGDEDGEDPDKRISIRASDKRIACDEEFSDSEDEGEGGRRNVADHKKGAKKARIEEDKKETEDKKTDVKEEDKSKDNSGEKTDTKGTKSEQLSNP

human HDAC1 = human HDAC1 (Homo sapiens (Human), UniProt Q13547); assay: biochemical
Sequence of human HDAC1 (Q13547 whole entry): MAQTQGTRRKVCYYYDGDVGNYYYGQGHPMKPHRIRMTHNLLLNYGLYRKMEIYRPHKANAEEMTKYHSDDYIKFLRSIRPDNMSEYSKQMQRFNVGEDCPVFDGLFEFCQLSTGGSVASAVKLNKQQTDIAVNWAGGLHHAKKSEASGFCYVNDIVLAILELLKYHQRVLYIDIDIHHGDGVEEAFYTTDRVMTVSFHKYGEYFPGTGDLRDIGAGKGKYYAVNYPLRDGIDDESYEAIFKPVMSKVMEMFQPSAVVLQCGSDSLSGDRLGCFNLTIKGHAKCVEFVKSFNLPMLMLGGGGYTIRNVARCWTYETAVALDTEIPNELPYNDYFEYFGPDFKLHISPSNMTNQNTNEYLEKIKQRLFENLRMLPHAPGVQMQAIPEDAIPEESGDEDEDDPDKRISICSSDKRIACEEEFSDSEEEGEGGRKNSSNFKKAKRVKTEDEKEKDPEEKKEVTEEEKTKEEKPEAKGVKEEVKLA

human HDAC8 = human HDAC8 (Homo sapiens (Human), UniProt Q9BY41); assay: HDAC8 inhibition assay (modified FLUOR DE LYS, 384-well); type: biochemical; conditions: […] nM enzyme, 200 μM substrate BML-KI178, 3 h pre-incubation; read-out: HDAC8 IC50
Sequence of human HDAC8 (Q9BY41 whole entry): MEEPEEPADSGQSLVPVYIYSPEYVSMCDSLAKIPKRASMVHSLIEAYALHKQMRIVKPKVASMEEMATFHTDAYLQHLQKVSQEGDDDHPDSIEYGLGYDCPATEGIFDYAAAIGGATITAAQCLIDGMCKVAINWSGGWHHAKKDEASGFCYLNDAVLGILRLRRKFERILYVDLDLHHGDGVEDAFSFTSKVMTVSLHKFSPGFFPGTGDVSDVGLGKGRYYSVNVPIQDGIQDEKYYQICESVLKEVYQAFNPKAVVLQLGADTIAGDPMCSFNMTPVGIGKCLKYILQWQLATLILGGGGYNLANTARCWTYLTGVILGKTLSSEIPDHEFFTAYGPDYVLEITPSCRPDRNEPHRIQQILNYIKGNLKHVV
Description: The histone deacetylase activities of HDAC1, HDAC2, HDAC3, HDAC6, and HDAC8 were measured in modified FLUOR DE LYS assays in 384-well format. In this assay, HDAC enzymes are initially incubated with an F-acetyl (or -trifluoroacetyl)-L-lysine-containing substrate with a C-terminal amide having aminomethylcoumarin as the amine component. HDACs cleave the F-acetyl group, rendering the resulting product susceptible to AMC cleavage by trypsin. The released AMC is then detected by its fluorescence. […] All steps were performed at room temperature (23° C.). The assay was performed by pre-incubating serial dilutions of test compounds with the target HDAC prior to initiation with substrate. […] Final conditions used for each assay were: 1. […] The reactions were stopped and developed by addition of 30 ul of HDAC developer solution containing a saturating level of HDAC inhibitor as follows: 1. […] For data analysis, background subtracted product (fluorescence) vs. time data for each inhibitor concentration was fitted using a 4-parameter fit.

KARN cells (Jurkat 2C4) = assay: cells; conditions: Homo sapiens
Description: KARN Assay Cell Maintenance
KARN cells (Jurkat 2C4) were licensed from the laboratory of Dr. John Karn, Case Western Reserve University, School of Medicine. […] An atmosphere of 5% CO2 and 90% humidity was used for all culture work.
These flasks were returned to the incubator.
The cells were gently resuspended in assay media (30 ml) and pelleted again. […] The cells were counted using the ViCell (Beckman Coulter) and diluted as necessary. […] The plates were covered and returned to the incubator prior to compound addition.
The reference compounds, DMSO and SAHA were then added to the compound plate. […] The final high concentration for SAHA and the test compounds in the assays was 40 μM. The final DMSO concentration in all wells was 0.4%. The minimal induction reference compound used was DMSO and the maximal induction reference compound used was SAHA (2 μM final concentration in the assay).
Day 3: The luciferase detection reagent was prepared by transferring the contents of one bottle of Steady-Glo buffer to one bottle of Steady-Glo aubstrate (Steady-Glo Luciferase Assay System, Promega, catalog number E2520), followed by gently mixing until the substrate was thoroughly dissolved and the solution was equilibrated to room temperature. […] The Steady-Glo Reagent was added to the plates (30 μl/well), which were then covered with a black lid and incubated for 10 minutes at room temperature. The plates were then read for luminescence on an Envision (Perkin Elmer) using the ultrasensitive mode (US LUM), 0.1 counts per second and 384-well aperture. Luminescence counts in the DMSO reference wells were considered as 0% induction, while those in the 2 μM SAHA reference wells were considered as 100% induction. Dose response curves were plotted as test compound concentration (X-axis) vs. percent activation (Y-axis) using a 4-parameter fit based on the Levenberg-Marquardt algorithm.

[2] = read-out: Karn EC50 nM 0.1% NHS
[3] = read-out: Karn EC50 nM 0.1% NHS, 0.1% normal human serum, luciferase induction, 2 μM SAHA = 100%
[4] = read-out: Karn EC50 nM 5% NHS, 5% normal human serum, luciferase induction, 2 μM SAHA = 100%

Sequence of human HDAC3/SMRT heterodimer (O15379 whole entry): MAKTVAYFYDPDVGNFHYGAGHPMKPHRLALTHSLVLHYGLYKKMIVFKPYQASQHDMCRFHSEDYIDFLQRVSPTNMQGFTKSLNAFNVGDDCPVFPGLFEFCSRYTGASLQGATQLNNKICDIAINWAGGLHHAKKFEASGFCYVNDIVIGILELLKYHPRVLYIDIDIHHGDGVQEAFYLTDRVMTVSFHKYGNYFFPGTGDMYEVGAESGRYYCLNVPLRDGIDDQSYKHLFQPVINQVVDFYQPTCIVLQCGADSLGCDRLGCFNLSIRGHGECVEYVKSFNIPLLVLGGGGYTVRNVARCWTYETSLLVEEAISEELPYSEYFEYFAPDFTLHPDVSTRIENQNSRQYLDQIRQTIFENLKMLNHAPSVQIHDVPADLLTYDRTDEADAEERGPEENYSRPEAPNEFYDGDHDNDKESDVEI
Sequence of human HDAC3/SMRT heterodimer (Q9Y618 1-899 partner): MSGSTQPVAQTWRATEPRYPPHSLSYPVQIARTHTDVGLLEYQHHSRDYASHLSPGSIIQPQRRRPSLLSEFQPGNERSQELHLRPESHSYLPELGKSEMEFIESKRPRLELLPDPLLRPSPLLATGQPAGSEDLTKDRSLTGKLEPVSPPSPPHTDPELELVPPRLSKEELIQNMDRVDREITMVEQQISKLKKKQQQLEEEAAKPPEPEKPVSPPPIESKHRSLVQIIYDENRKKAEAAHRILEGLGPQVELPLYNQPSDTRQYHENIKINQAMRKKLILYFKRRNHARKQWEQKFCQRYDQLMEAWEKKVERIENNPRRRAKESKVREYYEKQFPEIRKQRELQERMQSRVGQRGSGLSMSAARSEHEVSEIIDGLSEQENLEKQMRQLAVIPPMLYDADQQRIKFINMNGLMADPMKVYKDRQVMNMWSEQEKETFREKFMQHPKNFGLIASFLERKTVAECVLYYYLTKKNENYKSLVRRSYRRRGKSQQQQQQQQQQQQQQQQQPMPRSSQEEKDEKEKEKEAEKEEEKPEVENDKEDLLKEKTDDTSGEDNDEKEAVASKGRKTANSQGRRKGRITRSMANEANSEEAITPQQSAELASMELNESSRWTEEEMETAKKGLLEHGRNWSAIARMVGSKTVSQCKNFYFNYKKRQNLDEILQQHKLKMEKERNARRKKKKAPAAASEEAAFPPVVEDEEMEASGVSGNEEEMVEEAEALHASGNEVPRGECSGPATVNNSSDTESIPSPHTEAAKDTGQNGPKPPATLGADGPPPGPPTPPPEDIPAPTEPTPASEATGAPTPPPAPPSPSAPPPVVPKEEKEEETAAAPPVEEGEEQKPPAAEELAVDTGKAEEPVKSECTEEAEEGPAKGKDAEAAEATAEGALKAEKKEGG
Sequence of HDAC6 (Q9UBN7 whole entry): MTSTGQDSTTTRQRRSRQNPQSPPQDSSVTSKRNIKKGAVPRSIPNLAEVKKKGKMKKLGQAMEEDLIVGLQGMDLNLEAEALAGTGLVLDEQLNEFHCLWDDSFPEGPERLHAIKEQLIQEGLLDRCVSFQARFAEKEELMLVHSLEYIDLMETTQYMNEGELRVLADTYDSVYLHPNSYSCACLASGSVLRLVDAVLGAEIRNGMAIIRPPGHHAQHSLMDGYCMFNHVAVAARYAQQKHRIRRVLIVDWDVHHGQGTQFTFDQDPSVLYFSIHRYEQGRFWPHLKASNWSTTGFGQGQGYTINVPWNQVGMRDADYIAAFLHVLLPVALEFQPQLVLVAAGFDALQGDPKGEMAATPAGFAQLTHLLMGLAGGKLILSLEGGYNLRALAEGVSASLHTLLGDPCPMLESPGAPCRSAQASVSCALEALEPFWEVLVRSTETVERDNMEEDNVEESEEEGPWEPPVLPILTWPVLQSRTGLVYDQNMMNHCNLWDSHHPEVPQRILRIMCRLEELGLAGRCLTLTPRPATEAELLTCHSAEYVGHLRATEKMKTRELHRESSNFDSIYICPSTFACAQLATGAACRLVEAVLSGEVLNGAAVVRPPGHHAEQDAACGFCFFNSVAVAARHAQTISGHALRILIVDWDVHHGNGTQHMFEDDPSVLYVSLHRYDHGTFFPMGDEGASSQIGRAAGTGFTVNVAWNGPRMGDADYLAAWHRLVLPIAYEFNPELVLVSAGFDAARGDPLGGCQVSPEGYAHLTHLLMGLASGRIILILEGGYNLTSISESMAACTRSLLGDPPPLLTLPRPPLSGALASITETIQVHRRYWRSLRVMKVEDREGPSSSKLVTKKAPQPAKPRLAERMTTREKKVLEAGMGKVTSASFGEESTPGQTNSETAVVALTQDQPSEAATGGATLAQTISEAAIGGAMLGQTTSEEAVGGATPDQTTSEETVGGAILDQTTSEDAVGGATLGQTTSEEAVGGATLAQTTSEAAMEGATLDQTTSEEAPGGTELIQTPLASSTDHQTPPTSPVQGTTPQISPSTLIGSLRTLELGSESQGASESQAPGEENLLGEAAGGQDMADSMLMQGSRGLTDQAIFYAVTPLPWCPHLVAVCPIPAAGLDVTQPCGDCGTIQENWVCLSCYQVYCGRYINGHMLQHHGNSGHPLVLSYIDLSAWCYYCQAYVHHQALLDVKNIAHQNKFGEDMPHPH

`COc1cc2nc(C)ccc2cc1-c1cnc([C@H](CCCCCC(=O)c2ncco2)NC(=O)C2CN(C)C2)[nH]1` [Example 99, (S)-N-(1-(5-(7-methoxy-2-methylquinolin-6-yl)-1H-imidazol-2-yl)-7-(oxazol-2-yl)-7-oxoheptyl)-1-methylazetidine-3-carboxamide] showed an IC50 (HDAC6) of 1300 nM, an IC50 [1] of 0.47 nM and an IC50 (human HDAC2) of 2.6 nM. It also gave an IC50 (human HDAC1) of 0.3 nM, an IC50 (human HDAC8) of 56 nM and an EC50 (KARN cells (Jurkat 2C4); [2]) of 77 nM. The EC50 (KARN cells (Jurkat 2C4); read-out: Karn EC50 nM 5% NHS) was 73 nM.

`COc1cc2nc(C)ccc2cc1-c1cnc([C@H](CCCCCC(=O)c2ncco2)NC(=O)C2CN(C)C2)o1` [Example 100, (S)-N-(1-(5-(7-methoxy-2-methylquinolin-6-yl)oxazol-2-yl)-7-(oxazol-2-yl)-7-oxoheptyl)-1-methylazetidine-3-carboxamide] was tested, and the IC50 (HDAC6) was 620 nM, the IC50 [1] was 0.28 nM and the IC50 (human HDAC2) was 1.3 nM. The IC50 (human HDAC1) was 0.45 nM, the IC50 (human HDAC8) was 130 nM and the EC50 (KARN cells (Jurkat 2C4); [2]) was 19 nM. For the same compound, the EC50 (KARN cells (Jurkat 2C4); read-out: Karn EC50 nM 5% NHS) was 21 nM.

For `CCN1CCC2(CC1)C[C@@H]2C(=O)N[C@@H](CCCCCC(=O)c1ncco1)c1[nH]c(-c2ccc(F)cc2)nc1Cl` [Example 97, (S)-N-((S)-1-(4-chloro-2-(4-fluorophenyl)-1H-imidazol-5-yl)-7-(oxazol-2-yl)-7-oxoheptyl)-6-ethyl-6-azaspiro[2.5]octane-1-carboxamide], the IC50 (HDAC6) was 19000 nM, the IC50 [1] was 0.066 nM and the IC50 (human HDAC2) was 0.38 nM. The IC50 (human HDAC1) was 0.049 nM, the IC50 (human HDAC8) was 210 nM and the EC50 (KARN cells (Jurkat 2C4); [3]) was 4.1 nM. For the same compound, the EC50 (KARN cells (Jurkat 2C4); [4]) was 11 nM.

With `COc1cc2ncccc2cc1-c1c[nH]c([C@@H](N)CCCCCC(=O)c2ncco2)n1` [Example 23, (S)-7-amino-7-(4-(7-methoxyquinolin-6-yl)-1H-imidazol-2-yl)-1-(oxazol-2-yl)heptan-1-one] the IC50 (HDAC6) was 31000 nM, the IC50 [1] was 1.8 nM and the IC50 (human HDAC2) was 9.5 nM. For the same compound, the IC50 (human HDAC1) was 1.9 nM, the IC50 (human HDAC8) was 660 nM and the EC50 (KARN cells (Jurkat 2C4); [3]) was 100 nM. For the same compound, the EC50 (KARN cells (Jurkat 2C4); [4]) was 210 nM.

With `CN(C)CC(=O)N[C@@H](CCCCCC(=O)c1ncco1)c1oc(-c2ccc(F)cc2)nc1C#N` [Example 190] the IC50 (HDAC6) was no less than 45000 nM, the IC50 [1] was 3.2 nM and the IC50 (human HDAC2) was 21 nM. It also gave an IC50 (human HDAC1) of 4.6 nM, an IC50 (human HDAC8) of 3200 nM and an EC50 (KARN cells (Jurkat 2C4); [3]) of 240 nM. For the same compound, the EC50 (KARN cells (Jurkat 2C4); [4]) was 260 nM.

For `CN(C)CC(=O)N[C@@H](CCCCCC(=O)c1ccon1)c1nc(Cl)c(-c2ccc(F)cc2)[nH]1` [Example 194, (S)-N-(1-(4-chloro-5-(4-fluorophenyl)-1H-imidazol-2-yl)-7-(isoxazol-3-yl)-7-oxoheptyl)-2-(dimethylamino)acetamide], the IC50 (HDAC6) was 9500 nM, the IC50 [1] was 0.1 nM and the IC50 (human HDAC2) was 0.69 nM. For the same compound, the IC50 (human HDAC1) was 0.2 nM, the IC50 (human HDAC8) was 19 nM and the EC50 (KARN cells (Jurkat 2C4); [3]) was 3.2 nM. For the same compound, the EC50 (KARN cells (Jurkat 2C4); [4]) was 15 nM.

Work on `O=C1CC[C@](CCCCCC(=O)c2ncco2)(c2ncc(-c3ccc(F)cc3)[nH]2)N1` [Example 65, (R)-5-(5-(4-fluorophenyl)-1H-imidazol-2-yl)-5-(6-(oxazol-2-yl)-6-oxohexyl)pyrrolidin-2-one] yielded an IC50 (HDAC6) of no less than 45000 nM, an IC50 [1] of 2.2 nM and an IC50 (human HDAC2) of 11 nM. The IC50 (human HDAC1) was 2.2 nM, the IC50 (human HDAC8) was 3100 nM and the EC50 (KARN cells (Jurkat 2C4); [3]) was 470 nM. It also gave an EC50 (KARN cells (Jurkat 2C4); [4]) of 630 nM.

`COc1cc2nc(C)ccc2cc1-c1cnc([C@@]2(CCCCCC(=O)c3ccon3)CCC(=O)N2)[nH]1` [Example 70, (R)-5-(6-(isoxazol-3-yl)-6-oxohexyl)-5-(5-(7-methoxy-2-methylquinolin-6-yl)-1H-imidazol-2-yl)pyrrolidin-2-one] gave an IC50 (HDAC6) greater than 900 nM, an IC50 [1] of 1.1 nM and an IC50 (human HDAC2) of 3.5 nM. It also gave an IC50 (human HDAC1) of 0.78 nM, an IC50 (human HDAC8) of 260 nM and an EC50 (KARN cells (Jurkat 2C4); [3]) of 31 nM. It also gave an EC50 (KARN cells (Jurkat 2C4); [4]) of 110 nM.

`CC(=O)N[C@@H](CCCCCC(=O)c1ncco1)c1ncc(-c2ccc3nc(C)ccc3c2)[nH]1` [Example 87, (S)-N-(1-(5-(2-methylquinolin-6-yl)-1H-imidazol-2-yl)-7-(oxazol-2-yl)-7-oxoheptyl)acetamide] showed an IC50 (HDAC6) of 8600 nM, an IC50 [1] of 1.8 nM and an IC50 (human HDAC2) of 5.7 nM. It also gave an IC50 (human HDAC1) of 0.69 nM, an IC50 (human HDAC8) of 130 nM and an EC50 (KARN cells (Jurkat 2C4); [2]) of 43 nM. The EC50 (KARN cells (Jurkat 2C4); read-out: Karn EC50 nM 5% NHS) was 60 nM.
